Several values for one entry are separate records, joined by “and”; a condition that tells them apart may be missing. Equal values may be shown once. Read-outs that look alike come from different tables or passages of the source.
Experiments:
[1] = Population pharmacokinetic modeling and covariate analysis; assay type: in vivo, human; conditions: for IIV V1, inter-individual variability on volume of distribution / IIVCL, inter-individual variability on clearance / IOV CL, inter-occasion variability on clearance: expressed as variance; for θKa, first-order absorption rate constant: fixed value; for clearance / Vd: human, plasma, oral; for Vd: θV1, volume of distribution
[2] = in vivo
clinical = conditions: human, in vivo
NSCLC patients = conditions: 150 mg erlotinib, cited from earlier work
[3] = test system: African Americans with NSCLC; test: Treatment-related toxicities; assay type: in vivo, human; conditions: for Dermatologic, other than rash: Any, grade 1–3: erythema, hyperpigmentation, pruritus, xerodermia; for Nausea, grade 1–3: only one grade three nausea was recorded
NSCLC = test: Efficacy: disease control rate at 3 months; assay type: in vivo, human
[4] = other studies; cited from earlier work
[5] = Base model (n=26), Bootstrap median (95% CI)
[6] = Base model (n=26), Estimate (CV %)
[7] = Covariate model (LBM, n=26), Bootstrap median (95% CI)
[8] = Covariate model (LBM, n=26), Estimate (CV %)

C#Cc1cccc(Nc2ncnc3cc(OCCOC)c(OCCO)cc23)c1 [OSI-420]
θCLM, metabolite clearance [1, 5]: 23.60 (4.76, 47.91) L/h
θV2, metabolite volume of distribution [1, 5]: 7.67 (0.09, 21.91) L
θCLM, metabolite clearance [1, 6]: 21.5 (8.9) L/h
θV2, metabolite volume of distribution [1, 6]: 7.18 (62.8) L
θCLM, metabolite clearance [1, 7]: 27.80 (4.04, 55.60) L/h
θV2, metabolite volume of distribution [1, 7]: 8.99 (0.04, 26.11) L
θCLM, metabolite clearance [1, 8]: 32.6 (10.4) L/h
θV2, metabolite volume of distribution [1, 8]: 11.6 (12.1) L
OSI-420 detection in plasma [2]: ƛ OSI-420 was undetectable in one patient treated on Arm B
measurable OSI-420 in plasma [2]: no measureable OSI-420

C#Cc1cccc(Nc2ncnc3cc(OCCOC)c(OCCOC)cc23)c1 [erlotinib]
θFM (fraction of erlotinib converted to OSI-420, FMET=1/1+exp(FM)) [1, 5]: 1.22 (0.47, 3.33)
IIV V1, inter-individual variability on volume of distribution [1, 5]: 0.90 (0.40, 1.33)
IIVCL, inter-individual variability on clearance [1, 5]: 0.24 (0.005, 0.44)
IOV CL, inter-occasion variability on clearance [1, 5]: 0.58 (0.29, 0.89)
θFM (fraction of erlotinib converted to OSI-420, FMET=1/1+exp(FM)) [1, 6]: 1.41 (12.8)
IIV V1, inter-individual variability on volume of distribution [1, 6]: 0.92 (50.5)
IIVCL, inter-individual variability on clearance [1, 6]: 0.06 (80.8)
IOV CL, inter-occasion variability on clearance [1, 6]: 0.38 (55.5)
θKa, first-order absorption rate constant ([1]; Base model (n=26)): 1.04 h⁻¹
θFM (fraction of erlotinib converted to OSI-420, FMET=1/1+exp(FM)) [1, 7]: 1.03 (0.23, 3.49)
θLBM, lean body mass covariate term [1, 7]: 1.75 (0.69, 3.08)
IIV V1, inter-individual variability on volume of distribution [1, 7]: 0.92 (0.43, 1.37)
IIVCL, inter-individual variability on clearance [1, 7]: 0.13 and 0.13 (0.001, 0.35)
IOV CL, inter-occasion variability on clearance [1, 7]: 0.51 (0.15, 0.85)
θFM (fraction of erlotinib converted to OSI-420, FMET=1/1+exp(FM)) [1, 8]: 0.88 (26.4)
θLBM, lean body mass covariate term [1, 8]: 1.71 (27.8)
IIV V1, inter-individual variability on volume of distribution [1, 8]: 0.95 (50.7)
IIVCL, inter-individual variability on clearance [1, 8]: 0.02 (127.1)
IOV CL, inter-occasion variability on clearance [1, 8]: 0.30 (67.9)
θKa, first-order absorption rate constant ([1]; Covariate model (LBM, n=26)): 1.04 h⁻¹
clearance ([1]; both, θCL, erlotinib clearance, Base model (n=26), Bootstrap median (95% CI)): 104 mL/min
clearance ([1]; both, θCL, erlotinib clearance, Base model (n=26), Estimate (CV %)): 104 mL/min
clearance ([1]; both, θCL, erlotinib clearance, Covariate model (LBM, n=26), Bootstrap median (95% CI)): 106 mL/min
clearance ([1]; both, θCL, erlotinib clearance, Covariate model (LBM, n=26), Estimate (CV %)): 107 mL/min
Vd ([1]; both, Base model (n=26), Bootstrap median (95% CI)): 275 L
Vd ([1]; both, Base model (n=26), Estimate (CV %)): 284 L
Vd ([1]; both, Covariate model (LBM, n=26), Estimate (CV %)): 283 L
clearance ([1]; estimated erlotinib clearance from nonlinear mixed-effects modeling, this study): 104 mL/min
AUC(0-t) (clinical; AUC0–24): 12200 ± 6200 ng·h/mL
Tmax (clinical; Tmax): 5 h
dose reductions due to adverse events (NSCLC patients; 81 Caucasian NSCLC patients): 14%
dose reductions due to adverse events (NSCLC patients; 1242 Asian NSCLC patients): 23%
AST elevation ([3]; All, n=55): 4 (7) no. of pts (%)
Anorexia, grade 1–2 ([3]; All, n=55): 14 (25) no. of pts (%)
Anorexia, grade 3 ([3]; All, n=55): 3 (5) no. of pts (%)
Any grade 3+ toxicity ([3]; All, n=55): 11 (20) no. of pts (%)
Any grade 4/5 toxicity ([3]; All, n=55): 1 (2) no. of pts (%)
Dehydration, grade 1–2 ([3]; All, n=55): 1 (2) no. of pts (%)
Dehydration, grade 3 ([3]; All, n=55): 2 (4) no. of pts (%)
Diarrhea: Any grade ([3]; All, n=55): 16 (29) no. of pts (%)
Diarrhea: Grade 1 ([3]; All, n=55): 14 (25) no. of pts (%)
Diarrhea: Grade 2 ([3]; All, n=55): 2 (4) no. of pts (%)
Diarrhea: Grade 3+ ([3]; All, n=55): 0 no. of pts (%)
Hyperbilirubinemia ([3]; All, n=55): 1 (2) no. of pts (%)
Pneumonitis, grade 3 ([3]; All, n=55): 1 (2) no. of pts (%)
Rash, maximum grade: Any grade ([3]; All, n=55): 38 (69) no. of pts (%)
Rash, maximum grade: Grade 1 ([3]; All, n=55): 22 (40) no. of pts (%)
Rash, maximum grade: Grade 2 ([3]; All, n=55): 12 (22) no. of pts (%)
Rash, maximum grade: Grade 3 ([3]; All, n=55): 4 (7) no. of pts (%)
Xerostomia ([3]; All, n=55): 2 (4) no. of pts (%)
Dermatologic, other than rash: Any, grade 1–3 ([3]; All, n=55): 16 (29) no. of pts (%)
Nausea, grade 1–3 ([3]; All, n=55): 8 (15) no. of pts (%)
AST elevation ([3]; Arm A (fixed dose), n=28): 4 (14) no. of pts (%)
Anorexia, grade 1–2 ([3]; Arm A (fixed dose), n=28): 5 (18) no. of pts (%)
Anorexia, grade 3 ([3]; Arm A (fixed dose), n=28): 2 (7) no. of pts (%)
Any grade 3+ toxicity ([3]; Arm A (fixed dose), n=28): 5 (18) no. of pts (%)
Any grade 4/5 toxicity ([3]; Arm A (fixed dose), n=28): 1 (4) no. of pts (%)
Dehydration, grade 1–2 ([3]; Arm A (fixed dose), n=28): 0 no. of pts (%)
Dehydration, grade 3 ([3]; Arm A (fixed dose), n=28): 1 (4) no. of pts (%)
Diarrhea: Any grade ([3]; Arm A (fixed dose), n=28): 9 (32) no. of pts (%)
Diarrhea: Grade 1 ([3]; Arm A (fixed dose), n=28): 7 (25) no. of pts (%)
Diarrhea: Grade 2 ([3]; Arm A (fixed dose), n=28): 2 (7) no. of pts (%)
Diarrhea: Grade 3+ ([3]; Arm A (fixed dose), n=28): 0 no. of pts (%)
Hyperbilirubinemia ([3]; Arm A (fixed dose), n=28): 0 no. of pts (%)
Pneumonitis, grade 3 ([3]; Arm A (fixed dose), n=28): 1 (4) no. of pts (%)
Rash, maximum grade: Any grade ([3]; Arm A (fixed dose), n=28): 19 (68) no. of pts (%)
Rash, maximum grade: Grade 1 ([3]; Arm A (fixed dose), n=28): 12 (43) no. of pts (%)
Rash, maximum grade: Grade 2 ([3]; Arm A (fixed dose), n=28): 7 (25) no. of pts (%)
Rash, maximum grade: Grade 3 ([3]; Arm A (fixed dose), n=28): 0 no. of pts (%)
Xerostomia ([3]; Arm A (fixed dose), n=28): 0 no. of pts (%)
Dermatologic, other than rash: Any, grade 1–3 ([3]; Arm A (fixed dose), n=28): 7 (25) no. of pts (%)
Nausea, grade 1–3 ([3]; Arm A (fixed dose), n=28): 2 (7) no. of pts (%)
AST elevation ([3]; Arm B (dose adjusted), n=27): 0 no. of pts (%)
Anorexia, grade 1–2 ([3]; Arm B (dose adjusted), n=27): 9 (33) no. of pts (%)
Anorexia, grade 3 ([3]; Arm B (dose adjusted), n=27): 1 (4) no. of pts (%)
Any grade 3+ toxicity ([3]; Arm B (dose adjusted), n=27): 6 (22) no. of pts (%)
Any grade 4/5 toxicity ([3]; Arm B (dose adjusted), n=27): 0 no. of pts (%)
Dehydration, grade 1–2 ([3]; Arm B (dose adjusted), n=27): 1 (4) no. of pts (%)
Dehydration, grade 3 ([3]; Arm B (dose adjusted), n=27): 1 (4) no. of pts (%)
Diarrhea: Any grade ([3]; Arm B (dose adjusted), n=27): 7 (26) no. of pts (%)
Diarrhea: Grade 1 ([3]; Arm B (dose adjusted), n=27): 7 (26) no. of pts (%)
Diarrhea: Grade 2 ([3]; Arm B (dose adjusted), n=27): 0 no. of pts (%)
Diarrhea: Grade 3+ ([3]; Arm B (dose adjusted), n=27): 0 no. of pts (%)
Hyperbilirubinemia ([3]; Arm B (dose adjusted), n=27): 1 (4) no. of pts (%)
Pneumonitis, grade 3 ([3]; Arm B (dose adjusted), n=27): 0 no. of pts (%)
Rash, maximum grade: Any grade ([3]; Arm B (dose adjusted), n=27): 19 (70) no. of pts (%)
Rash, maximum grade: Grade 1 ([3]; Arm B (dose adjusted), n=27): 10 (37) no. of pts (%)
Rash, maximum grade: Grade 2 ([3]; Arm B (dose adjusted), n=27): 5 (19) no. of pts (%)
Rash, maximum grade: Grade 3 ([3]; Arm B (dose adjusted), n=27): 4 (15) no. of pts (%)
Xerostomia ([3]; Arm B (dose adjusted), n=27): 2 (7) no. of pts (%)
Dermatologic, other than rash: Any, grade 1–3 ([3]; Arm B (dose adjusted), n=27): 9 (33) no. of pts (%)
Nausea, grade 1–3 ([3]; Arm B (dose adjusted), n=27): 6 (22) no. of pts (%)
patients who experienced rash during the first cycle ([3]; Arm B, of the 27 enrolled patients): 18 patients
diarrhea, % of patients ([3]; all 55 treated patients): 29%
dose reductions for toxicity ([3]; all 55 treated patients): no dose reductions for toxicity
nausea, % of patients ([3]; all 55 treated patients): 15%
patients who experienced any grade 3 toxicity ([3]; all 55 treated patients (11 patients)): 20%
AUC0–24 ([2]; human): 17400 ± 8900 ng·h/mL
Tmax ([2]; human): 2.5 (0–10) hrs
PD (NSCLC; All, n=52 evaluable patients): 40 (78) Number of patients (%)
PR (NSCLC; All, n=52 evaluable patients): 1 (2) Number of patients (%)
1 year progression free rate (NSCLC; All, n=55 treated patients): 7%
1 year survival rate (NSCLC; All, n=55 treated patients): 28%
Survival, Median (NSCLC; All, n=55 treated patients): 5.3 months
Survival, Range (NSCLC; All, n=55 treated patients): 0.9–42.8 months
TTP, Median (95% CI) (NSCLC; All, n=55 treated patients): 2.6 (1.9– 2.8) months
TTP, Range (NSCLC; All, n=55 treated patients): 0.3–20.2 months
DCR at 3 months (NSCLC; Arm A, n=26 evaluable patients): 6 (23) Number of patients (%)
PD (NSCLC; Arm A, n=26 evaluable patients): 20 (77) Number of patients (%)
PR (NSCLC; Arm A, n=26 evaluable patients): 1 (4) Number of patients (%)
1 year progression free rate (NSCLC; Arm A, n=28): 10%
1 year survival rate (NSCLC; Arm A, n=28): 30%
Survival, Median (NSCLC; Arm A, n=28): 5.3 months
Survival, Range (NSCLC; Arm A, n=28): 0.9–37.4 months
TTP, Median (95% CI) (NSCLC; Arm A, n=28): 2.8 (2.5–3.1) months
TTP, Range (NSCLC; Arm A, n=28): 0.6–14.4 months
DCR at 3 months (NSCLC; Arm B, n=26 evaluable patients): 6 (23) Number of patients (%)
PD (NSCLC; Arm B, n=26 evaluable patients): 20 (77) Number of patients (%)
PR (NSCLC; Arm B, n=26 evaluable patients): 0 Number of patients (%)
1 year progression free rate (NSCLC; Arm B, n=27): 4%
1 year survival rate (NSCLC; Arm B, n=27): 26%
Survival, Median (NSCLC; Arm B, n=27): 5.2 months
Survival, Range (NSCLC; Arm B, n=27): 1.3–42.8 months
TTP, Median (95% CI) (NSCLC; Arm B, n=27): 2.4 (1.5–2.7) months
TTP, Range (NSCLC; Arm B, n=27): 0.3–20.2 months
range of population estimates for CL/F [4]: 3.29 to 5.82 L/h

Reference: paper PMC4180036 (Clinical pharmacology and therapeutics, 2014)
